Test results from patent publication US7851000B2, “Taste potentiator compositions and edible confectionery and chewing gum products containing same” (Cadbury Adams USA LLC, priority 2005, dated 2010).

Legend:
[1] = cited from earlier work
expert panel members = test: Sucrose Equivalent Value (SEV), perceived sweetness matched to stock sucrose solutions; assay type: in vivo; details: for effect on sweetness of sucrose solution (dose response curve): 0 to 1000 ppm in pH 3.2 buffered 5% sucrose solution; for effect on sweetness (SEV) of sucrose solutions, comparison of forms: 500 ppm in pH 3.2 buffered solutions with 0%, 3%, 5%, 7% and 9% sucrose; for SEV (%): 500 ppm potentiator alone in pH 3.2 buffered 5% sucrose solution
Experimental: One method of measuring the perceived sweetness of a solution is to match it with a stock sucrose solution of known concentration. In the present experiments, the compound of interest is added at a predetermined concentration to a pH 3.2 buffered solution containing 5% sucrose. A number of expert panel members then taste the solution and compare it to a battery of stock sucrose solutions ranging from 3% to 15% at increments of 1%. Each panel member decides which sucrose solution is equisweet with the solution containing the compound of interest. The mean value is then reported as the SEV. Results are reported to 1 decimal place.
In accordance with this methodology, 3-HB was added to a pH 3.2 buffered solution containing 5% sucrose to produce solutions containing from 0 to 1000 ppm 3-HB in 100 ppm increments. […] From FIG. 1 it is apparent that as the dosage of 3-HB increases so does the sweetness of the resultant solution. However the effect is non-linear with each incremental addition having a diminishing effect. The maximum sweetness attainable would appear to be about 7.9% SEV (based on a 5% sucrose solution).
The same methodology as described in Example 7 was repeated with 2,4-DHB in place of 3-HB, to produce the dose response curve for 2,4-DHB (FIG. 2). […] The maximum attainable sweetness would appear to be about 6.7% SEV (based on a 5% sucrose solution).
500 ppm of a sweetener potentiator was added to a pH 3.2 buffered solution containing 5% sucrose and the SEV of the resultant solution determined.
500 ppm of the sweetener potentiator then was added to a 5% sucrose solution containing 500 ppm 3-HB to produce a series of solutions. […] The use of 500 ppm of 3-HB alone results in an SEV of 6.9% whereas in all cases but two (2,4-DHB and 3,4-DHB) the addition of a second sweetener potentiator results in a little change or even a decrease in SEV. This is highly surprising considering that all of the potentiators are shown to have SEVs greater than 5%.
The methodology was repeated to produce a series of solutions containing 500 ppm 2,4-DHB and 500 ppm of a second sweetener potentiator.
500 ppm of 3-HB, 500 ppm of 2,4-DHB and 500 ppm of 3,4-dihydroxybenzoic acid (3,4-DHB) were added to a pH 3.2 buffered solution containing 5% sucrose and the SEV determined. The results are shown in FIG. 7 together with other combinations of 3-HB, 2,4-DHB and 3,4-DHB for comparison. The solution containing the combination of 3-HB and 2,4-DHB (hatched) has a much higher SEV (8.7%) than the combination of either 3,4-DHB and 3-HB (7.6%) or the combination of 3,4-DHB and 2,4-DHB (6.8%). The three-way combination of the embodiment (hatched) is better still with an SEV of 9.8%.
pH 3.2 buffered solutions were prepared containing 0%, 3%, 5%, 7% and 9% sucrose. 500 ppm of 2,4-DHB acid, 500 ppm of the sodium salt of 2,4-DHB and 500 ppm of the potassium salt of 2,4-DHB were added individually to each of the sucrose solutions. The SEV for each of the solutions was then determined.
The SEV of each sweetener solution was then evaluated after the addition 500 ppm of 3-HB, the addition of 500 ppm of 2,4-DHB and the addition of both 500 ppm 3-HB and 2,4-DHB.
500 ppm of 3-aminobenzoic acid and 500 ppm of 4-aminobenzoic acid were individually added to separate pH 3.2 buffered solutions containing 5% sucrose and the SEVs of the resultant solutions were determined. The SEV of 3-aminobenzoic acid was about 7%, i.e., increased the sweetness intensity of 5% sucrose to about 7%. The SEV of 4-aminobenzoic acid was about 5.5-6%, i.e., increased the sweetness intensity of 5% sucrose to about 5.5-6%.

Compound	effect on sweetness of sucrose solution (dose response curve) (expert panel members)	effect on sweetness (SEV) of sucrose solutions, comparison of forms (expert panel members)	SEV (%) (expert panel members)	further results
O=C(O)c1ccc(O)cc1O [2,4-DHB, 2,4-dihydroxybenzoic acid]	enhances the sweetness of the sucrose solution	enhances the sweetness of the sucrose solution in every case		effect on sweetness of 5% sucrose solution ([1]; 0.2% 2,4-DHB, Canadian Patent No. 1208966): increase in sweetness; effect on sweetness intensity of sucralose and aspartame ([1]; FIGS. 1 and 2 and Tables 1 and 2 of U.S. Pat. No. 6,461,658): slightly inhibitory effect; effect on sweetness delivery profile of sucralose ([1]; U.S. Pat. No. 6,461,658): significantly reducing the length of time during which sucralose sweetness is perceived; effect on sweetness with aspartame ([1]; WO99/15032): increase sweetness synergistically
O=C(O)c1cc(O)c(O)c(O)c1 [3,4,5-THB, 3,4,5-tryhydroxybenzoic acid]			5.1	
O=C(O)c1ccc(O)c(O)c1 [3,4-DHB, 3,4-dihydroxybenzoic acid]			6.4	
O=C(O)c1cccc(O)c1 [3-HB, 3-hydroxybenzoic acid]	enhances the sweetness of the sucrose solution			effect on sweetness of saccharin solution (expert panel members; 500 ppm, pH 3.2 saccharin solution of SEV about 5%): enhances the sweetness to a greater degree alone than in combination with 2,4-DHB
O=C([O-])c1ccc(O)cc1O.[K+] [potassium salt of 2,4-DHB]		enhances the sweetness of the sucrose solution in every case		
O=C([O-])c1ccc(O)cc1O.[Na+] [sodium salt of 2,4-DHB]		enhances the sweetness of the sucrose solution in every case		
